In assay [1] the target is Recombinant G2019S-LRRK2 protein (Homo sapiens (Human), UniProt Q5S007, G2019S). The assay can be described thus: LRRK2 kinase activity, LanthaScreen TR-FRET assay (G2019S). The format is biochemical. Conditions: LRRKtide 400 nM, 25 μM ATP, 60 min. The protocol: (§1) LRRK2 kinase activity was measured using a LanthaScreen™ Kinase Activity Assay from ThermoFisher Scientific. Recombinant wild type or G2019S-LRRK2 protein (Life Technologies, PR8604B or PV4881, respectively), was incubated with a fluorescein-labeled peptide substrate called LRRKtide that is based upon ezrin/radixin/moesin (ERM) (Life Technologies, PV4901) in the presence of ATP and serially diluted compound. […] Compound-dependent inhibition of the TR-FRET signal was used to generate a concentration-response curve for IC50 determination.
Chain of Recombinant G2019S-LRRK2 protein (Q5S007 whole entry G2019S): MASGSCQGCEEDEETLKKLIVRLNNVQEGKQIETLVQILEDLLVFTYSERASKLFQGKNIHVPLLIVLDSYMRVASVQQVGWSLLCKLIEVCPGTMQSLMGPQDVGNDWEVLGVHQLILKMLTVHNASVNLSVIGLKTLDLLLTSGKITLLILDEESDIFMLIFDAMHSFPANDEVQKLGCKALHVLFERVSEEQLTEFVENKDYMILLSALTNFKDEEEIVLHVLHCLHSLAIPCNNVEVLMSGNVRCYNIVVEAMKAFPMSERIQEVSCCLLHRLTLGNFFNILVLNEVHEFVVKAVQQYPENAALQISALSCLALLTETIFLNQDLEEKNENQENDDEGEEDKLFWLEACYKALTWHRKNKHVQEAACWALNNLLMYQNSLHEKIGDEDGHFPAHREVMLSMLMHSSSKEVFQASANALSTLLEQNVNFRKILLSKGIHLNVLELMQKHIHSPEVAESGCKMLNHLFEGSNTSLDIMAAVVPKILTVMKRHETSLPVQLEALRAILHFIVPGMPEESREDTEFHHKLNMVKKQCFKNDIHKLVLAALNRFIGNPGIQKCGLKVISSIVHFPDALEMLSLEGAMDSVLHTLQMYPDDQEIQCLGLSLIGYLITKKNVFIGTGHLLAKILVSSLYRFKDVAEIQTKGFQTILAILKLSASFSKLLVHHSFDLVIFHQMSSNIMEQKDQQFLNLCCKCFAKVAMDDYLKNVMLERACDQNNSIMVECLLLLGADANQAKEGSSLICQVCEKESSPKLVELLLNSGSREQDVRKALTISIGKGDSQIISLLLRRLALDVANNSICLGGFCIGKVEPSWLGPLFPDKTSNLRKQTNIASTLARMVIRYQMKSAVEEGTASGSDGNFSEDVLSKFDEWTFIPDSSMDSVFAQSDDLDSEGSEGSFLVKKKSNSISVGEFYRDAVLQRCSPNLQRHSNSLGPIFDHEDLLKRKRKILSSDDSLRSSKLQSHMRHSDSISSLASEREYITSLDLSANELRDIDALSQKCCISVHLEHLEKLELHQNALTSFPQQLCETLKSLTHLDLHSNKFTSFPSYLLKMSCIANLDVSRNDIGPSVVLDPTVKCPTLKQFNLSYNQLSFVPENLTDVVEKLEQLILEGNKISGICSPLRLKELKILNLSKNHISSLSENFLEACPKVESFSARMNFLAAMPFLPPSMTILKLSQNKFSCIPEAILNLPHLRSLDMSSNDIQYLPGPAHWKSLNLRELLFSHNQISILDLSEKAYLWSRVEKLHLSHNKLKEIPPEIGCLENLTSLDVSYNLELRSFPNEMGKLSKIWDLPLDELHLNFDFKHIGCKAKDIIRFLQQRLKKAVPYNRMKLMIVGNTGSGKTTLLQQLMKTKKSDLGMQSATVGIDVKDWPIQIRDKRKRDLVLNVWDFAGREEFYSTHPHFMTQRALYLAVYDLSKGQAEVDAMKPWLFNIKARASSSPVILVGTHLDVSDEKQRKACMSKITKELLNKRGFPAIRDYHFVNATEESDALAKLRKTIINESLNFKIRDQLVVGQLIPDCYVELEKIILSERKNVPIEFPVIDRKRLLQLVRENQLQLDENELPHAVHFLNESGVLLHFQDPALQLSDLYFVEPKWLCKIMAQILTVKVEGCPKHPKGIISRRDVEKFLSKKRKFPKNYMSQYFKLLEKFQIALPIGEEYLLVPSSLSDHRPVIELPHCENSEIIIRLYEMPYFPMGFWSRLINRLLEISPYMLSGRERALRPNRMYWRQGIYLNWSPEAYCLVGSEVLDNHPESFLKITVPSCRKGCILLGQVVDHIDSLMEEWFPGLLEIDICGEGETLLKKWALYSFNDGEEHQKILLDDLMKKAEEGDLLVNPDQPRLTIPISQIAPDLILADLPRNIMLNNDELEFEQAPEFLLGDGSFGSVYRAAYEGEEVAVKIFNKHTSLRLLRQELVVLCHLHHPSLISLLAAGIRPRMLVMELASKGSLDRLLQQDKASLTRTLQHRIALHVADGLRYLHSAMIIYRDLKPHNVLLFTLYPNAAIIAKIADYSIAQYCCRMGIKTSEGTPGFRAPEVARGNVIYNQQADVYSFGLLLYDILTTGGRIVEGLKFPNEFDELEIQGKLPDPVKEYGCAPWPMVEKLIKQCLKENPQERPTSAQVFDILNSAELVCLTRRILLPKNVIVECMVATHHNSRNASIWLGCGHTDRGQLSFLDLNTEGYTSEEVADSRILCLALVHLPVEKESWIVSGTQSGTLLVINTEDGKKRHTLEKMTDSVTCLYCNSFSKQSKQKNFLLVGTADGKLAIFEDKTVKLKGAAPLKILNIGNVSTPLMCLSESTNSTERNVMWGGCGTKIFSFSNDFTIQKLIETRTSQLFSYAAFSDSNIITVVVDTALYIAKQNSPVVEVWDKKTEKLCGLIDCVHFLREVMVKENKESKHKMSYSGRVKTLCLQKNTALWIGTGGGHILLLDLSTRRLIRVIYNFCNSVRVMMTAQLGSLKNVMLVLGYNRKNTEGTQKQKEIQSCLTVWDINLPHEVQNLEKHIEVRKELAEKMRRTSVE
(§2) After 60 min incubation at room temperature, the reaction was stopped by addition of 10 μL of 2× stop solution containing a final concentration of 2 nM anti-pERM antibody and 10 mM EDTA. […] The ratio of the 520 nm and 495 nm emission was used to analyze the data.
In general terms: Time-resolved FRET reads energy transfer from a long-lived donor to a nearby acceptor.

For assay [2], the target named is Recombinant wild type LRRK2 protein (Homo sapiens (Human), UniProt Q5S007). The assay can be described thus: LRRK2 kinase activity, LanthaScreen TR-FRET assay (wild type). The format is biochemical. Conditions: LRRKtide 400 nM, 25 μM ATP, 60 min; read-out: LRRK2 WT IC50. The protocol:
as §1, §2

A value given as a limit tells only on which side of the number the result lay.

In patent US11427558B1, “Indazoles and azaindazoles as LRRK2 inhibitors” (ESCAPE Bio, Inc., priority 2019, dated 2022) one finds IC50 data, which are given here for 28 molecules.

Chain of Recombinant wild type LRRK2 protein (Q5S007 whole entry): as the sequence (Q5S007 whole entry G2019S) above, with S2019G counted along it

A word on the IC50: it is the midpoint of a concentration-inhibition curve. For “2-Chloro-3-cyano-N-(3-(1-(difluoromethyl)-1H-pyrazol-3-yl)-1H-indazol-5-yl)benzamide [Example 166]”, the concentration for half-maximal inhibition (IC50) in assay [1] and in assay [2] was less than 100 nM throughout.
Regarding “4-Cyano-N-(3-(1-(difluoromethyl)-1H-pyrazol-3-yl)-1H-indazol-5-yl)-2-fluoro-6-methylbenzamide [Example 165]”, the 50% inhibitory concentration (IC50) in assay [1] and in assay [2] was less than 100 nM throughout.
Turning to `N#Cc1cnc(C(=O)Nc2ccc3[nH]nc(-c4ccoc4)c3c2)c(F)c1` [Example 1, 5-Cyano-3-fluoro-N-(3-(furan-3-yl)-1H-indazol-5-yl)picolinamide], the concentration for half-maximal inhibition (IC50) in assay [1] and in assay [2] was less than 100 nM in each case.
In the case of `N#Cc1ccc(C(=O)Nc2ccc3[nH]nc(-c4ccoc4)c3c2)c(Br)c1` [Example 2, 2-Bromo-4-cyano-N-(3-(furan-3-yl)-1H-indazol-5-yl)benzamide], the IC50 in assay [1] and in assay [2] was less than 100 nM throughout.
`N#Cc1ccc(C(=O)Nc2ccc3[nH]nc(-c4ccoc4)c3c2)c(F)c1` [Example 3, 4-Cyano-2-fluoro-N-(3-(furan-3-yl)-1H-indazol-5-yl)benzamide]: the concentration for half-maximal inhibition (IC50) in assay [1] and in assay [2] was less than 100 nM each time.
Take `N#Cc1ccc(C(=O)Nc2ccc3[nH]nc(-c4ccoc4)c3c2)c(I)c1` [Example 4, 4-Cyano-N-(3-(furan-3-yl)-1H-indazol-5-yl)-2-iodobenzamide]: the IC50 in assay [1] and in assay [2] was less than 100 nM throughout.
For the molecule `N#Cc1ccc(C(=O)Nc2ccc3[nH]nc(-c4ccoc4)c3c2)c(Cl)c1` [Example 5, 2-Chloro-4-cyano-N-(3-(furan-3-yl)-1H-indazol-5-yl)benzamide], the half-maximal inhibitory concentration (IC50) in assay [1] and in assay [2] was less than 100 nM throughout.
As for `N#Cc1ccc(C(=O)Nc2ccc3[nH]nc(-c4ccoc4)c3c2)c(C(F)(F)F)c1` [Example 6, 4-Cyano-N-(3-(furan-3-yl)-1H-indazol-5-yl)-2-(trifluoromethyl)benzamide], the half-inhibitory concentration (IC50) in assay [1] and in assay [2] was less than 100 nM each time.
Take `N#Cc1cc(F)c(C(=O)Nc2ccc3[nH]nc(-c4ccoc4)c3c2)c(F)c1` [Example 7, 4-Cyano-2,6-difluoro-N-(3-(furan-3-yl)-1H-indazol-5-yl)benzamide]: the IC50 in assay [1] and in assay [2] was less than 100 nM each time.
In the case of `Cc1nc(C#N)ccc1C(=O)Nc1ccc2[nH]nc(-c3ccoc3)c2c1` [Example 8, 6-Cyano-N-(3-(furan-3-yl)-1H-indazol-5-yl)-2-methylnicotinamide], the figures for the half-inhibitory concentration (IC50) in assay [1] and in assay [2] were less than 100 nM and 100 to 1000 nM, respectively.
Regarding `N#Cc1ccc(C(=O)Nc2ccc3[nH]nc(-c4ccoc4)c3c2)cn1` [Example 9, 6-Cyano-N-(3-(furan-3-yl)-1H-indazol-5-yl)nicotinamide], the IC50 is less than 100 nM in assay [1] and 100 to 1000 nM in assay [2].
In the case of `Cc1cc(C#N)cc(C)c1C(=O)Nc1ccc2[nH]nc(-c3ccoc3)c2c1` [Example 10, 4-Cyano-N-(3-(furan-3-yl)-1H-indazol-5-yl)-2,6-dimethylbenzamide], the IC50 in assay [1] and in assay [2] was less than 100 nM throughout.
Consider `N#Cc1ccc(C(=O)Nc2ccc3[nH]nc(-c4ccoc4)c3c2)cc1` [Example 11, 4-Cyano-N-(3-(furan-3-yl)-1H-indazol-5-yl)benzamide], for which the half-maximal inhibitory concentration (IC50) in assay [1] is less than 100 nM; in assay [2], 100 to 1000 nM.
In the case of `Cc1cc(C#N)ccc1C(=O)Nc1ccc2[nH]nc(C)c2c1` [Example 12, 4-Cyano-2-methyl-N-(3-methyl-1H-indazol-5-yl)benzamide], the half-maximal inhibitory concentration (IC50) in assay [1] was less than 100 nM; in assay [2] it was 100 to 1000 nM.
For `Cc1nc(C(=O)Nc2ccc3[nH]nc(-c4ccoc4)c3c2)ccc1C#N` [Example 13, 5-Cyano-N-(3-(furan-3-yl)-1H-indazol-5-yl)-6-methylpicolinamide], in that order: less than 100 nM and 100 to 1000 nM.
`Cc1cc(C#N)cnc1C(=O)Nc1ccc2[nH]nc(-c3ccoc3)c2c1` [Example 14, 5-Cyano-N-(3-(furan-3-yl)-1H-indazol-5-yl)-3-methylpicolinamide]: the half-inhibitory concentration (IC50) was […] in assay [1] and […] in assay [2].
On to `COc1cc(C#N)ccc1C(=O)Nc1ccc2[nH]nc(-c3ccoc3)c2c1` [Example 15, 4-Cyano-N-(3-(furan-3-yl)-1H-indazol-5-yl)-2-methoxybenzamide], for which the IC50 in assay [1] is less than 100 nM; in assay [2], 100 to 1000 nM.
The matching figures for `N#Cc1ccc(C(=O)Nc2ccc3[nH]nc(-c4ccoc4)c3c2)nc1` [Example 16, 5-Cyano-N-(3-(furan-3-yl)-1H-indazol-5-yl)picolinamide]: less than 100 nM and 100 to 1000 nM.
The matching figures for `Cc1ccc(C#N)cc1C(=O)Nc1ccc2[nH]nc(-c3ccoc3)c2c1` [Example 17, 5-Cyano-N-(3-(furan-3-yl)-1H-indazol-5-yl)-2-methylbenzamide]: less than 100 nM and less than 100 nM.
As to `Cc1cc(C#N)ccc1C(=O)Nc1ccc2[nH]nc(-c3ccoc3)c2c1` [Example 18, 4-Cyano-N-(3-(furan-3-yl)-1H-indazol-5-yl)-2-methylbenzamide], the IC50 in assay [1] and in assay [2] was less than 100 nM throughout.
In the case of `Cc1c(C#N)cccc1C(=O)Nc1ccc2[nH]nc(-c3ccoc3)c2c1` [Example 19, 3-Cyano-N-(3-(furan-3-yl)-1H-indazol-5-yl)-2-methylbenzamide], the half-inhibitory concentration (IC50) in assay [1] and in assay [2] was less than 100 nM in each case.
Regarding `N#Cc1ncc(C(=O)Nc2ccc3[nH]nc(-c4ccoc4)c3c2)s1` [Example 20, 2-Cyano-N-(3-(furan-3-yl)-1H-indazol-5-yl)thiazole-5-carboxamide], the values for the IC50 in assay [1] and in assay [2] were less than 100 nM and 100 to 1000 nM, respectively.
In the case of `N#Cc1cccc(C(=O)Nc2ccc3[nH]nc(-c4ccncc4)c3c2)c1` [Example 21, 3-Cyano-N-(3-(pyridin-4-yl)-1H-indazol-5-yl)benzamide], the IC50 in assay [1] and in assay [2] was less than 100 nM in each case.
Turning to `N#Cc1cc(C(=O)Nc2ccc3[nH]nc(-c4ccncc4)c3c2)ccn1` [Example 22, 2-Cyano-N-(3-(pyridin-4-yl)-1H-indazol-5-yl)isonicotinamide], the IC50 in assay [1] and in assay [2] was less than 100 nM each time.
As for `N#Cc1ccnc(C(=O)Nc2ccc3[nH]nc(-c4ccncc4)c3c2)c1` [Example 23, 4-Cyano-N-(3-(pyridin-4-yl)-1H-indazol-5-yl)picolinamide], the IC50 in assay [1] was less than 100 nM; in assay [2], 100 to 1000 nM.
For `N#Cc1cncc(C(=O)Nc2ccc3[nH]nc(-c4ccncc4)c3c2)c1` [Example 24, 5-Cyano-N-(3-(pyridin-4-yl)-1H-indazol-5-yl)nicotinamide], in that order: 100 to 1000 nM and 100 to 1000 nM.
Take `N#Cc1ncc(C(=O)Nc2ccc3[nH]nc(-c4ccncc4)c3c2)cn1` [Example 25, 2-Cyano-N-(3-(pyridin-4-yl)-1H-indazol-5-yl)pyrimidine-5-carboxamide]: the IC50 in assay [1] and in assay [2] was 100 to 1000 nM each time.
Turning to `Cc1cc(C#N)cnc1C(=O)Nc1ccc2[nH]nc(-c3ccoc3)c2n1` [Example 105, 5-Cyano-N-(3-(furan-3-yl)-1H-pyrazolo[4,3-b]pyridin-5-yl)-3-methylpicolinamide], the IC50 in assay [2] was 100 to 1000 nM.
